Tests used:
[1] = mice models of obesity; cited from earlier work
IKKε = IKKε (Homo sapiens (Human), UniProt Q14164); assay: Lanthascreen TR-FRET kinase inhibition assay, IKKε; assay type: biochemical; conditions: 20 μM ATP (apparent Km), 2 nM kinase, 1 h
Summary of the method: (§1)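 TR-FRET: terbium phosphospecific antibody detects phosphorylation of 400 nM fluorescein-IkBα peptide, 20 μM ATP, 20 °C, HEPES pH 7.5 with 3% DMSO. IKKε at 2 nM, 1 h reaction; TBK1 at 8 nM, 2.5 h reaction; started by kinase addition.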

TBK1 = TBK1 (Homo sapiens (Human), UniProt Q9UHD2); assay: Lanthascreen TR-FRET kinase inhibition assay, TBK1; assay type: biochemical; conditions: 20 μM ATP (apparent Km), 8 nM kinase, 2.5 h
Summary of the method: as §1

Chain of TBK1 (Q9UHD2 whole entry): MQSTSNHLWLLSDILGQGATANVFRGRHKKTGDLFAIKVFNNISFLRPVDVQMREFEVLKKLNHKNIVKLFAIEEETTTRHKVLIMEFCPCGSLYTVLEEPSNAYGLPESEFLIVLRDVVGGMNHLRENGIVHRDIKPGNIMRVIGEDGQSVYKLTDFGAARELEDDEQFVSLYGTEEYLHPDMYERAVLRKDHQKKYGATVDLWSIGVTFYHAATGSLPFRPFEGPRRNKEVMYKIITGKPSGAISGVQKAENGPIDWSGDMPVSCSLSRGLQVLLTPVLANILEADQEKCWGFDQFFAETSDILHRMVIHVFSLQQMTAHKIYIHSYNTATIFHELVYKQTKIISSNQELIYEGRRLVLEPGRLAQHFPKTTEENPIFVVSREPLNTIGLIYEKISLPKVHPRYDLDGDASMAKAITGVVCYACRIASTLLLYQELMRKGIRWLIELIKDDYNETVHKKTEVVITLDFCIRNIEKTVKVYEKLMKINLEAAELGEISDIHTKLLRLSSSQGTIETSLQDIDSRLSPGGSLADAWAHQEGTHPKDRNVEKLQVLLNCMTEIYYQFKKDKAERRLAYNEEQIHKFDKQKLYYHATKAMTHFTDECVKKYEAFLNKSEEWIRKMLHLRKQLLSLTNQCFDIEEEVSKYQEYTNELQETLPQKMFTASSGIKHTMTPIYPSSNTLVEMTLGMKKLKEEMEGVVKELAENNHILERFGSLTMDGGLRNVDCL
Chain of IKKε (Q14164 whole entry): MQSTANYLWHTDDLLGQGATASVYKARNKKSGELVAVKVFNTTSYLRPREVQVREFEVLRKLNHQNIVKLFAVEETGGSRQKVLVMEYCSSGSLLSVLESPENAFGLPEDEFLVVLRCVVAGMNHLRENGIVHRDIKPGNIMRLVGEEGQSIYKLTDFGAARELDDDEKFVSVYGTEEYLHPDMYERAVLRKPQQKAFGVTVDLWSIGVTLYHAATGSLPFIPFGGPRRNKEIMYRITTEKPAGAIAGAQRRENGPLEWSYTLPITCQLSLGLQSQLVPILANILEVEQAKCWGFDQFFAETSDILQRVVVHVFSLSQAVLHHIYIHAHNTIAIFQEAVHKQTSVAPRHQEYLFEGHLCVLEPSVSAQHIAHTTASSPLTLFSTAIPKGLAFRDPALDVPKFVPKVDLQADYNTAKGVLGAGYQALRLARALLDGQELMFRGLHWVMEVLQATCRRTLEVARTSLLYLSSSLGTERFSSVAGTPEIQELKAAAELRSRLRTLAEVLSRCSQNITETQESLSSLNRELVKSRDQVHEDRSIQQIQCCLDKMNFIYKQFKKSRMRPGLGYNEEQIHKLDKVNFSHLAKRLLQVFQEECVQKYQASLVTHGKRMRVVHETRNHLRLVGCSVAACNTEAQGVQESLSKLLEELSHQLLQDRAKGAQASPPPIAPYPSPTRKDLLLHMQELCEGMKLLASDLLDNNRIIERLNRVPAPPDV

| SMILES | IC50 (IKKε) [nM] | IC50 (TBK1) [nM] | blood glucose levels [1] | weight gain [1] |
| --- | --- | --- | --- | --- |
| CC(C)c1ccc2oc3nc(N)c(C(=O)O)cc3c(=O)c2c1 [Amlexanox] |  |  | lower blood glucose levels | reduce weight gain |
| CC(NCc1ccccc1)C(=O)Nc1ccc(Nc2nccc(-c3cnc(N4CC[C@H](F)C4)c(C#N)c3)n2)cn1 (stereo partly drawn) [DMX-55, 2-Benzylamino-N-(5-{4-[5-cyano-6-((S)-3-fluoro-pyrrolidin-1-yl)-pyridin-3-yl]-pyrimidin-2-ylamino}-pyridin-2-yl)-propionamide] | < 100 | < 30 |  |  |
| N#Cc1cc(-c2ccnc(Nc3cnn(CCCO)c3)n2)cnc1N1CC[C@H](F)C1 [DMX-52, 2-((S)-3-Fluoro-pyrrolidin-1-yl)-5-{2-[1-(3-hydroxy-propyl)-1H-pyrazol-4-ylamino]-pyrimidin-4-yl}-nicotinonitrile] | < 100 | < 30 |  |  |
| N#Cc1cc(-c2ccnc(Nc3cnn(C4CCOCC4)c3)n2)cnc1N1CC[C@H](F)C1 [DMX-33, 2-((S)-3-Fluoro-pyrrolidin-1-yl)-5-{2-[1-(tetrahydro-pyran-4-yl)-1H-pyrazol-4-ylamino]-pyrimidin-4-yl}-nicotinonitrile] | < 15 | < 15 |  |  |

Second part, led by results:

| IC50 (IKKε) [nM] | IC50 (TBK1) [nM] | SMILES | blood glucose levels [1] | weight gain [1] |
| --- | --- | --- | --- | --- |
| < 100 | < 100 | Cn1cc(Nc2nccc(-c3ccc(N4CCC(C(N)=O)CC4)c(C#N)n3)n2)cn1 [DMX-60, 2′-Cyano-6′-[2-(1-methyl-1H-pyrazol-4-ylamino)-pyrimidin-4-yl]-3,4,5,6-tetrahydro-2H-[1,3′]bipyridinyl-4-carboxylic acid amide] |  |  |
| < 100 | < 100 | CC(Nc1ncc(-c2ccnc(Nc3ccc(CN4CCOCC4)nc3)n2)cc1C#N)C(N)=O (stereo not drawn) [DMX-134, 2-{3-Cyano-5-[2-(6-morpholin-4-ylmethyl-pyridin-3-ylamino)-pyrimidin-4-yl]-pyridin-2-ylamino}-propionamide] |  |  |
| < 15 | < 30 | N#Cc1cc(-c2ccnc(Nc3ccc(CN4CC[C@H](F)C4)nc3)n2)cnc1N1CC[C@H](F)C1 [DMX-80, 2-((S)-3-Fluoro-pyrrolidin-1-yl)-5-{2-[6-((S)-3-fluoro-pyrrolidin-1-ylmethyl)-pyridin-3-ylamino]-pyrimidin-4-yl}-nicotinonitrile] |  |  |
| < 100 | < 100 | CN(C(=O)CN1CCOCC1)c1ccc(Nc2nccc(-c3cnc(N4CC[C@H](F)C4)c(C#N)c3)n2)cn1 [DMX-74, N-(5-{4-[5-Cyano-6-((S)-3-fluoro-pyrrolidin-1-yl)-pyridin-3-yl]-pyrimidin-2-ylamino}-pyridin-2-yl)-N-methyl-2-morpholin-4-yl-acetamide] |  |  |
| < 30 | < 30 | COC1CN(Cc2ccc(Nc3nccc(-c4cnc(N5CC[C@H](F)C5)c(C#N)c4)n3)cn2)C1 [DMX-83, 2-((S)-3-Fluoro-pyrrolidin-1-yl)-5-{2-[6-(3-methoxy-azetidin-1-ylmethyl)-pyridin-3-ylamino]-pyrimidin-4-yl}-nicotinonitrile] |  |  |

From US9433622B2, “Pyrimidine compounds useful in the treatment of diseases mediated by IKKE and/or TBK1 mechanisms” (DOMAINEX LIMITED, priority 2013, dated 2016)
